From patent US10174081B2, “Antimicrobial peptides and uses therefore” (priority 2011, dated 2019)
≈ marks a conversion by molar mass, not a printed value. Where “and” joins values, the source holds several entries; their conditions need not be identical. Equal values may be shown once. Square brackets hold non-standard residues; d marks the D form. Ends that are not written are not given here. Peptide text beside a SMILES is read from it.

What was measured:
P. aeruginosa = experiment: Galleria mellonella infection by P. aeruginosa with AMP and antibiotic treatments; format: in vivo; details: single dose: 5 μg ciprofloxacin or 10 μg peptide
Protocol: Galleria mellonella (wax moth caterpillars) were obtained from Vanderhorst Wholesale (Saint Marys, Ohio). Eight to twelve caterpillars of equal size/weight were randomly assigned to each group. A 1 mL tuberculin syringe was used to inject 10 μl of 1×10^3 CFU/ml of P. aeruginosa into each caterpillar via the last left proleg. […] Caterpillar control groups included: injected with only PBS, ciprofloxacin, or AMPs. The insects were then observed daily for their survival status.

[1] = test system: P. aeruginosa (ATCC 19429); experiment: Anti-microbial assay (CFU survival, EC50) against P. aeruginosa; format: cell-based, Pseudomonas aeruginosa; details: Example 6, FIG. 16; unit not given
Protocol: P. aeruginosa (ATCC 19429, American Type Culture Collection, Manassas, Va.) was grown in Nutrient Broth (Difco Laboratories, Detroit, Mich.) at 37° C. for 24 hours with shaking at 200 rpm. The CFU/ml was determined by growth on Nutrient Agar plates. For anti-microbial assays, frozen enumerated aliquots were thawed immediately before use.
Each experiment was repeated at least twice, and a representative experiment is shown, for clarity.

B. cereus (ATCC 11778) = experiment: Anti-microbial performance against B. cereus, with and without FICOLL 70; format: cell-based; details: for fold increase in potency against B. cereus: 20% FICOLL 70 versus none
S. aureus biofilm = experiment: Biofilm production (crystal violet) and growth (OD600) of S. aureus in TSB; format: cell-based, Staphylococcus aureus
Protocol: Biofilm production was measured as previously described (Durham-Colleran et al., supra) with the following modifications. […] The positive control was S. aureus in TSB with no peptide. Six wells were used for each peptide concentration (n=6). After 24 hours, the optical densities (OD) of the wells were taken at 600 nm to quantify […]. The biofilm production was measured using the crystal violet stain technique (Durham-Colleran et al., supra). All experiments were repeated at least twice.

C. albicans (ATCC 14053) = experiment: Anti-microbial assay (CFU survival, EC50) against C. albicans; format: cell-based, Candida albicans; details: for EC50 against C. albicans: 3 hours, 37° C., 10 mM sodium phosphate pH 7.4, inconsistent colony growth; for Inhibition of C. albicans: at 500 and 100 μg; for EC50: converted with molecular weight
Protocol: C. albicans (ATCC 14053) was grown up in 25 mL of Sabouraud Dextrose (SO) broth for 48 hours at 25° C., after which samples were aliquoted into 2 mL microcentrifuge tubes at 0.5 mL.
On a 96-well plate, 1×10^4 CFU per well of C. albicans were incubated with different peptide concentrations (in serial dilutions of 1:10 and 1:5) starting with […] in a solution of buffer containing 10 mM sodium phosphate at pH 7.4 (3 hours, 37° C.). Serial dilutions were then carried out in 1× Dulbecco's PBS, and samples were plated in triplicate on Sabouraud Dextrose Agar plates, incubated (25° C., 48 hours) and CFUs were counted. C. albicans survival at each peptide concentration was calculated as previously described (Amer et al., supra; de Latour et al., supra), based on the percentage of the number of colonies in each experimental plate relative to the average number of colonies observed for assay cultures lacking peptide. […] In the equation, “Top” and “Bottom” refer to the upper and lower boundaries, and were constrained to values <100% and >0%, respectively. For graphing purposes, samples that had no peptide were plotted at 10^−9 μg/ml peptide. EC50 values were determined by fitting the data from the anti-microbial assays to a standard sigmoidal dose-response curve. Errors were reported based on the standard deviation from the mean of the log EC50 values. 2. Results

E. coli (ATCC 25922) = experiment: Anti-microbial performance against E. coli, with and without FICOLL 70; format: cell-based, Escherichia coli; details: for Average EC50, E. coli: unit inferred; for fold increase in potency against E. coli: 20% FICOLL 70 versus none; for Anti-microbial performance of ATRA-1A isomers (EC50) E coli (ATCC 25922): Example 5, Table 9
Protocol: In these assays, bacteria (1×10^5 CFU/ml) were incubated for 3 hours at 37° C. with varied concentrations of peptide in 10 mM phosphate buffer (pH 7.4) containing 0 to 30% FICOLL™ 70. The potencies of the peptide isomers were determined by plotting bacterial survival (%) as a function of log peptide concentration and fitting the data to a standard dose response equation. Each experiment was conducted at least three times, with the exception of experiments with 15% and 30% FICOLL™, which were only performed once.

A. baumannii = details: Example 5, Table 9
Protocol: Anti-microbial activity was determined for each peptide isomer by enumerating the number of viable colony forming units after incubating bacteria in media containing varied concentrations of peptide.

P. aeruginosa biofilm [2] = experiment: Biofilm production (crystal violet) and growth (OD600) of P. aeruginosa in TSB; format: cell-based, Pseudomonas aeruginosa
Protocol: Biofilm production was measured as previously described (Durham-Colleran et al. (2010) Microb. Ecol., 59(3):457-465) with the following modifications. P. aeruginosa (1×10^5 CFU) in 200 μl of TSB media (Trypticase Soy Broth) was incubated with peptide at concentrations of 1.0, 0.1, and 0.01 μg/ml for 24 hours at 37° C. (Table 2). Optical density of the cultures (OD600 nm) at 24 hours was determined prior to staining as a measure of bacterial growth. Six wells were used for each peptide concentration (n=6). Biofilm production was measured using the crystal violet stain technique (Durham-Colleran et al., supra).

S. aureus (ATCC 25923) = experiment: Anti-microbial assay (CFU survival, EC50) against S. aureus; format: cell-based, Staphylococcus aureus; details: for EC50 against S. aureus, preliminary studies: Example 4, FIG. 10
Protocol: S. aureus (ATCC 25923, American Type Culture Collection, Manassas, Va.) was grown in Nutrient Broth (Difco Laboratories, Detroit, Mich.) at pH 7, 37° C., for 24 hours with shaking at 200 rpm. The overnight culture was frozen with 20% glycerol and stored at −80° C. The frozen stock was enumerated (CFU/ml) by dilution plating and growth on Nutrient Agar plates.
For anti-microbial assays, frozen enumerated aliquots were thawed and gently mixed immediately before use. […] Negative control wells contained bacteria with no peptide. […] The EC50 was calculated as previously described (de Latour et al., supra).
Errors were reported based on the standard deviation from the mean of the log10 EC50 values (Gordon et al., supra). 95% confidence intervals were used to determine whether points were statistically different at p=0.05.

S. aureus = experiment: Biofilm attachment assay; format: cell-based, Staphylococcus aureus; details: 1 μg/ml peptide, 1 hour, 37° C.
Protocol: Biofilm attachment assays were performed in 96-well microtiter plates (BD Falcon 353072) as previously described (Overhage et al., supra). Overnight cultures of S. aureus were grown in TSB to an OD600 of about 1.0. […] The plates were incubated (1 hour, 37° C.) to allow the S. aureus to adhere to the wells. The wells were washed and OD600 measurements were taken, as in the biofilm production experiments, and the average absorbance for each treatment was determined (n=16).

P. aeruginosa biofilm [3] = details: Overhage et al.; cited from earlier work

Molecule	average EC50 against P. aeruginosa [1]	fold increase in potency against B. cereus (B. cereus (ATCC 11778))	EC50 with 20% FICOLL 70, B. cereus (B. cereus (ATCC 11778))	EC50 without FICOLL 70, B. cereus (B. cereus (ATCC 11778))	EC50 against C. albicans (C. albicans (ATCC 14053))	Inhibition of C. albicans (C. albicans (ATCC 14053))	EC50 (C. albicans (ATCC 14053))	Average EC50, E. coli (E. coli (ATCC 25922); 0% FICOLL 70)	Average EC50, E. coli (E. coli (ATCC 25922); 5% FICOLL 70)	Average EC50, E. coli (E. coli (ATCC 25922); 10% FICOLL 70)	Average EC50, E. coli (E. coli (ATCC 25922); 15% FICOLL 70, performed once)	Average EC50, E. coli (E. coli (ATCC 25922); 20% FICOLL 70)	fold increase in potency against E. coli (E. coli (ATCC 25922))	Average EC50, E. coli (E. coli (ATCC 25922); 30% FICOLL 70, performed once)	Anti-microbial performance of ATRA-1A isomers (EC50) E coli (ATCC 25922) (E. coli (ATCC 25922))	EC50 with 20% FICOLL 70, E. coli (E. coli (ATCC 25922))	EC50 without FICOLL 70, E. coli (E. coli (ATCC 25922))	Anti-microbial performance of ATRA-1A isomers (EC50) A. baumannii (A. baumannii)	EC50 against S. aureus, preliminary studies (S. aureus (ATCC 25923))	further results
O=C(O)c1cn(C2CC2)c2cc(N3CCNCC3)c(F)cc2c1=O [ciprofloxacin]	–	–	–	–	–	–	–	–	–	–	–	–	–	–	–	–	–	–	–	effect on survival of infected G. mellonella (P. aeruginosa): effective; survival of P. aeruginosa-infected G. mellonella (P. aeruginosa; 1×10^3 CFU): 55%
CC(C)C[C@@H](NC(=O)[C@@H](CCCCN)NC(=O)[C@@H](CCCCN)NC(=O)[C@@H](Cc1ccccc1)NC(=O)[C@@H](Cc1ccccc1)NC(=O)[C@@H](CCCCN)NC(=O)[C@@H](CCCCN)NC(=O)[C@@H](C)NC(=O)[C@@H](CCCNC(=N)N)NC(=O)[C@H](N)CCCCN)C(=O)N[C@H](CCCCN)C(N)=O [D-ATRA-1A] (H-[dK][dR][dA][dK][dK][dF][dF][dK][dK][dL][dK]-NH2; N-terminus assumed)	9.643 (CI 6.5 to 14.2)	54.34 fold	0.0406 µg/mL	2.330 µg/mL	22.10 µg/mL (≈ 15.6 µM)	consistently seen	15.6 µM	1.3 µg/mL	0.71 µg/mL	0.24 µg/mL	0.1 µg/mL	0.085 µg/mL	13.66 fold	0.01 µg/mL	1.302 µg/mL	0.0850 µg/mL	1.302 µg/mL	9.73 µg/mL	6.97 µg/mL (≈ 4.91 µM)	inhibiting biofilm growth, D- versus L-ATRA-1A (S. aureus biofilm; 1 μg/ml, FIG. 20): more effective at inhibiting biofilm growth; inhibiting biofilm growth, D- versus L-ATRA-1A (P. aeruginosa biofilm [2]; 1 μg/ml, FIG. 20): more effective at inhibiting biofilm growth; fold difference in activities of L- and D-ATRA-1A against S. aureus (S. aureus (ATCC 25923); D less effective than L): 30 fold; EC50 against S. aureus, two best data sets (S. aureus (ATCC 25923); Example 6, FIGS. 14 and 15, left and right panels): 26.53 µg/mL and 25.02 µg/mL
GLKLRFEFSKIKGEFLKTPEVRFRDIKLKDNRISVQR [Scrambled LL-37, reference compound]	–	–	–	–	–	–	–	–	–	–	–	–	–	–	–	–	–	–	–	inhibition of biofilm formation (S. aureus biofilm; TSB, concentrations without anti-microbial activity): no inhibition of biofilm formation; inhibition of biofilm formation (P. aeruginosa biofilm [2]; TSB, any concentration tested (up to 1 μg/ml)): no inhibition of biofilm formation; attachment of S. aureus to polystyrene wells (S. aureus): did not decrease
GLLRKGGEKIGEKLKKIGQKIKNFFQKLVPQPEQ [mCRAMP]	–	–	–	–	–	–	–	–	–	–	–	–	–	–	–	–	–	–	–	inhibitory effect on biofilm formation, previously known (P. aeruginosa biofilm [3]): no inhibitory effect
KRAKKFFKKLK-NH2 [ATRA-1A]	14.22 (CI 10.4 to 19.4)	14 fold	5.207 µg/mL	72.41 µg/mL	33.38 µg/mL	consistently seen	23.5 µM	2.9 µg/mL	1.6 µg/mL	0.86 µg/mL	0.64 µg/mL	0.42 µg/mL	10.66 fold	0.29 µg/mL	4.323 µg/mL	0.420 µg/mL	4.232 µg/mL	53.25 µg/mL	0.27 µg/mL	EC50 of AMPs against S. aureus (S. aureus (ATCC 25923); 3 hours, 37° C., 10 mM sodium phosphate pH 7.4, ± standard deviation): 1.45 ± 1.5 µg/mL; Anti-microbial performance of ATRA-1A isomers (EC50) S. aureus (S. aureus (ATCC 25923); Example 5, Table 9): 1.45 µg/mL; EC50 (S. aureus (ATCC 25923); converted from μg/ml with molecular weight of TFA salt): 0.62 µM
